Experimental data reported in ChEMBL document CHEMBL1201862, “PubChem BioAssay data set” (2004).
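Assay format: 96-well plates, 48-hour exposure. The concentration for 50% growth inhibition is given as GI50.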 The source made the active and inactive calls. Rule as the data show it: active = GI50 up to about 1.1 µM and inactive = higher.

What was measured:
Assay in all cases: NCI anticancer screen, dose series, 48 h
SF-295 = test system: SF-295
PC-3 = test system: PC-3
HCT-116 = test system: HCT-116
NCI/ADR-RES = test system: NCI/ADR-RES
SK-MEL-2 = test system: SK-MEL-2
SK-OV-3 = test system: SK-OV-3
K562 = test system: K562
A498 = test system: A498
SR = test system: SR
SNB-75 = test system: SNB-75
HOP-62 = test system: HOP-62
HOP-92 = test system: HOP-92
SN12C = test system: SN12C
IGROV-1 = test system: IGROV-1
U-251 = test system: U-251
NCI-H226 = test system: NCI-H226
UO-31 = test system: UO-31
MOLT-4 = test system: MOLT-4

Measured: GI50

S=C(Nc1ccc2cn[nH]c2c1)Nc1ccc2cn[nH]c2c1
inactive: SF-295 87.3 µM | PC-3 48.5 µM | HCT-116 58.5 µM | NCI/ADR-RES > 100 µM | SK-MEL-2 35.6 µM | SK-OV-3 > 100 µM | K562 61.7 µM | A498 46 µM | SR 25.8 µM | SNB-75 53 µM | HOP-62 > 100 µM | HOP-92 > 100 µM | SN12C > 100 µM | IGROV-1 46.8 µM | U-251 57.4 µM | NCI-H226 44.1 µM | UO-31 > 100 µM

Cc1nc2ccc(F)cc2c2c1CCN2c1ccccc1
inactive: SF-295 11.7 µM | PC-3 19.1 µM | HCT-116 8.18 µM | NCI/ADR-RES 18.3 µM | K562 11.8 µM | MOLT-4 15.1 µM | A498 27.6 µM | SR 16.7 µM | SNB-75 12.8 µM | HOP-62 32.9 µM | HOP-92 12.2 µM | IGROV-1 18.6 µM | U-251 26 µM | NCI-H226 16.6 µM | UO-31 19 µM

O=C(NN=C1NCCCCN1)Nc1ccc(Cl)cc1
inactive: SF-295 > 100 µM | PC-3 73.5 µM | HCT-116 > 100 µM | NCI/ADR-RES > 100 µM | SK-MEL-2 > 100 µM | SK-OV-3 > 100 µM | K562 33 µM | MOLT-4 23.9 µM | A498 > 100 µM | SR 22.8 µM | SNB-75 31.6 µM | HOP-62 > 100 µM | HOP-92 > 100 µM | IGROV-1 > 100 µM | U-251 > 100 µM | NCI-H226 85.1 µM | UO-31 > 100 µM

CCn1c(=O)c2c3cc(OC(C)=O)ccc3oc2c2ccc(OC(C)=O)cc21
inactive: SF-295 19.8 µM | PC-3 33 µM | HCT-116 32.2 µM | NCI/ADR-RES 36.9 µM | SK-OV-3 75.9 µM | K562 33.8 µM | MOLT-4 23.6 µM | A498 24.8 µM | SR 36.3 µM | SNB-75 2.69 µM | HOP-62 37.9 µM | HOP-92 23.4 µM | SN12C 43.6 µM | IGROV-1 38.9 µM | U-251 32.6 µM | NCI-H226 34.4 µM | UO-31 26.6 µM

CNC(=O)CCC(NC(=O)OC(C)(C)C)C(=O)NC(Cc1ccc(NC(=O)CCCCC(C)=O)cc1)C(=O)NCC(=O)NC (stereo not given)
inactive: SF-295 > 100 µM | PC-3 > 100 µM | HCT-116 > 100 µM | NCI/ADR-RES > 100 µM | SK-OV-3 > 100 µM | K562 > 100 µM | MOLT-4 > 100 µM | A498 > 100 µM | SR > 100 µM | SNB-75 > 100 µM | HOP-62 > 100 µM | HOP-92 > 100 µM | SN12C > 100 µM | IGROV-1 > 100 µM | U-251 > 100 µM | NCI-H226 > 100 µM | UO-31 > 100 µM

COC(=O)c1c2c(cc3c1CC1(Cc4cc5c(c(C=O)c4C1)CCC5)C3)CCC2 (stereo not given)
inactive: SF-295 41.4 µM | PC-3 30.8 µM | HCT-116 21.2 µM | NCI/ADR-RES 40.5 µM | SK-MEL-2 23.8 µM | SK-OV-3 42.5 µM | K562 13.4 µM | MOLT-4 17 µM | A498 33.6 µM | SR 19.3 µM | SNB-75 > 100 µM | HOP-62 51.9 µM | HOP-92 19.3 µM | IGROV-1 28.4 µM | U-251 19.8 µM | UO-31 25.1 µM

CC(=O)OCC12C(=O)C[C@@H](C)C3(CC(c4ccoc4)OC3=O)C1CCC(OC(C)=O)C21CO1 (stereo not given in full)
inactive: SF-295 > 100 µM | PC-3 > 100 µM | HCT-116 > 100 µM | NCI/ADR-RES > 100 µM | SK-MEL-2 > 100 µM | K562 > 100 µM | MOLT-4 > 100 µM | A498 > 100 µM | SR > 100 µM | SNB-75 > 100 µM | HOP-62 > 100 µM | HOP-92 > 100 µM | SN12C > 100 µM | IGROV-1 > 100 µM | U-251 > 100 µM | NCI-H226 > 100 µM | UO-31 > 100 µM

CC1(C)[C@@H](Cn2cnc3c(N)ncnc32)CC[C@@]1(C)CO
inactive: SF-295 38.8 µM | PC-3 66.2 µM | HCT-116 44.9 µM | NCI/ADR-RES 84.5 µM | SK-OV-3 > 100 µM | K562 17.3 µM | MOLT-4 11.9 µM | A498 > 100 µM | SR 11.9 µM | SNB-75 > 100 µM | HOP-62 > 100 µM | HOP-92 > 100 µM | SN12C > 100 µM | IGROV-1 42.7 µM | U-251 > 100 µM | NCI-H226 40.3 µM | UO-31 81.1 µM

CCOC(=O)C1(C#N)C(C#N)(C#N)C1(C#N)C#N
inactive: SF-295 > 100 µM | PC-3 > 100 µM | HCT-116 > 100 µM | NCI/ADR-RES > 100 µM | SK-MEL-2 > 100 µM | SK-OV-3 > 100 µM | K562 > 100 µM | MOLT-4 > 100 µM | A498 > 100 µM | SR 88.5 µM | HOP-62 > 100 µM | HOP-92 > 100 µM | SN12C > 100 µM | IGROV-1 > 100 µM | U-251 > 100 µM | NCI-H226 > 100 µM | UO-31 > 100 µM
